Experimental data taken from patent publication US20190125869A1, “PULSED ELECTROMAGNETIC THERAPY FOR DIRECTING AGENTS TO CANCER CELLS” (MMTC, Inc., priority 2017, published 2019).

Tested on: AT2 prostatic tumor of rats
Assay: Growth of implanted tumors after intravenous Taxol, with or without pulsed microwaves
Assay type: in vivo, Copenhagen rats
Experimental: Treatment times were 30 minutes.
One rat with four implanted tumors, two in each flank, was used. Taxol was injected intravenously at 5 mg/kg. The two lower (right and left) tumors were treated as described above with pulsed microwaves, beginning immediately after the injection. Tumor growth was monitored over 14 days.

`CC(=O)O[C@H]1C(=O)[C@@]2(C)[C@H]([C@H](OC(=O)c3ccccc3)[C@]3(O)C[C@H](OC(=O)[C@H](O)[C@@H](NC(=O)c4ccccc4)c4ccccc4)C(C)=C1C3(C)C)[C@]1(OC(C)=O)CO[C@@H]1C[C@@H]2O` [Taxol] was tested, and the tumor size (Taxol 5 mg/kg intravenously plus pulsed microwaves (two treated tumors), after 14 days) was “barely detectable”, the tumor size (Taxol 5 mg/kg intravenously plus pulsed microwaves (two treated tumors), at 5 days) was “almost disappeared” and the tumor growth (Taxol 5 mg/kg intravenously, non-pulsed control tumors in the same rat, after 14 days) was “continued to grow”. The tumor size (Taxol 5 mg/kg intravenously, non-pulsed control tumors in the same rat, at 5 days) was “remained large” and the remission of tumors (microwave pulsing combined with systemically administered Taxol, pilot study summary) was “remission of tumors could be obtained”.
